Entries after “also recorded” stand apart in the source; their conditions may differ.
Assays:
Type in all cases: cell-based
Namalwa cells = assay: CellTiter-Glo cell viability, Namalwa cells; conditions: 72 hours, 1:1 with 8047, 10 nM-10 μM each
Description: CellTiter-Glo® 2.0 Cell Viability Assay (Promega) was carried out following the manufacturer's recommendations. Cells were seeded at a density of 1000 cells/well in a white 96 well plates (Corning, #3917) in a total volume of 100 μl with respective monomers, combinations of BRD ligands together with E3 ligase ligands or vehicle control treatment. After a 72 h incubation, 100 ul of the CellTiter-Glo® substrate was added per well and luminescence was read on a Spectramax M5 (Molecular Devices). Dose-response curves were generated using Graphpad Prism software.
Namalwa cells (1×104) were treated for 72 hours with the compounds solubilized in DMSO. Compounds were added at 10 nM-10 μM each. Cellular viability was determined using the CellTiter-Glo® Luminescent Cell Viability Assay (Promega) described above. FIG. 56 depicts the CURE-PRO-mediated loss of cellular viability for the BRD-E72 monomer (JQ1 derivatives comprising of boronic acid linkers), and the CRBN ligand, 8047 (a pomalidomide derivative comprising diol linkers) combined in a 1:1 ratio.

caspase 3/7 = assay: Caspase-Glo 3/7 assay, Namalwa cells; conditions: 24 hours, 1:1 with 8047
Description: Caspase-glo® assay (Promega) was conducted following the manufacturer's recommendations. Cells were seeded at a density of 5000 cells/well in a white 96 well plates (Corning, #3917) in a total volume of 100 μl with respective monomers, combinations of BRD ligands together with E3 ligase ligands or vehicle control treatment. After a 24 h incubation, 100 μl of the […] substrate was added per well and luminescence was read on a Spectramax M5 (Molecular Devices).
Namalwa cells (5×104) were treated for 24 hours with the compounds solubilized in DMSO. FIG. 57 is a bar graph depiction of fold increase of apoptosis assessed via caspase 3/7 activity using the Caspase-glo assay (Promega) described above.
Molm-13 (FIG. 76A) or Namalwa (FIG. 76B) cells (5×10^4) were treated for 24 hours with the compounds solubilized in DMSO in white 96 well plates (10 nM-10 μM solubilized in DMSO). FIG. 76 is a bar graph depiction of fold increase of apoptosis assessed via caspase 3/7 activity using the Caspase-glo assay (Promega) described above.

BRD4 [1] = biological target: T1, BRD4 (Homo sapiens, UniProt O60885); assay: Summary of BRD4 degradation by CURE-PRO pairs, estimated from Western Blot or WES (Proteinsimple); parameters: endogenous in cells; conditions: Table 1; CRBN ligand, second drawing (8047)
Text: A black check mark indicates efficacy of 30% to 70% or higher protein degradation.

BRD4 [2] = biological target: T1, BRD4; assay: CURE-PRO-mediated BRD4 degradation, Western blot, HeLa cells; parameters: endogenous in cells; host or cells: HeLa; conditions: 24 h
In short: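 HeLa cells treated 24 h with compounds in DMSO (1-10 μM, 10 μM or 100 μM each; paired monomers combined 1:1), optional 15-min pretreatment with pomalidomide, VHL298, Nutlin3a (10 μM) or MG-132/carfilzomib (1 μM). RIPA lysates, 10-20 μg protein immunoblotted for BRD4 with β-actin, ECL detection.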

BRD4 [3] = biological target: T1, BRD4; assay: CURE-PRO-mediated BRD4 degradation, WES (ProteinSimple), HeLa cells; parameters: endogenous in cells; host or cells: HeLa; conditions: 10 μM each, 4-24 h with washout after 4 h, or 100 nM-10 μM
Description: All cell lines were purchased from ATCC or DSMZ and grown at 37° C. with 5% CO2. Human HeLa cells were cultured in complete growth medium (Dulbecco's modified Eagle's medium (DMEM) supplemented with 10% FBS); MCF7 cells were cultured in complete growth medium (Dulbecco's modified Eagle's medium (DMEM) supplemented with 10% FBS and 0.01 mg/ml human recombinant insulin (Sigma Aldrich); Namalwa and MOLM-13 cells were cultured in complete growth medium (RPMI 1640 medium supplemented with 10% FBS); MV-4-11 were cultured in complete growth medium (Iscove's Modified Dulbecco's medium, supplemented with 10% FBS); HCT116 cells were cultured in complete growth medium (McCoy's 5a Medium supplemented with 10% FBS). For cellular degradation of BRD4 studies, cells were seeded in a 12-well plate at 70-80% confluency, allowed to attach overnight, and incubated with the indicated compounds for the indicated time. When indicated, a 15-minute pretreatment with 10 μM pomalidomide, 10 μM VHL298, 10 μM Nutlin3a, 1 μM MG-132 or 1 μM Carfilzomib was performed before the addition of CURE-PROs. For washout studies, after CURE-PRO treatment, media was aspirated and incubated with complete medium for the indicated time before lysis.
Anti-BRD4 (13440, 1:1,000 dilution for Western Blot and 1:25 dilution for ProteinSimple); Anti-BRD2 (5848 1:1,000 dilution for Western Blot and 1:25 dilution for ProteinSimple); β-Actin (3700, 1:2,000 dilution for Western Blot), β-Actin (4970, 1:50 dilution for ProteinSimple) anti-mouse IgG-HRP, and anti-rabbit IgG-HRP antibodies were purchased Cell Signaling Technology. Anti-GAPDH (600-401-A33, 1:100 dilution for ProteinSimple) was purchased from Rockland Immunochemicals, Inc. Anti-BRD3 (sc-81202, 1:200 dilution for Western Blot) was purchased from Santa Cruz Biotechnology.
WES Simple analysis was performed on WES system (ProteinSimple-Biotechne) according to the manufacturer's instructions. Total protein concentrations of cell lysates were determined by the Pierce BCA kit (Thermo Fisher). 3 μL of 0.3 μg/μL of the protein lysate was loaded onto a 12- to 230-kDa WES assay plate (ProteinSimple) where 300 nL sample was withdrawn through a capillary, subjected to electrophoretic separation of proteins by size, and followed by the simultaneous, HRP-based detection of proteins using the Anti-Rabbit Detection Module (Proteinsimple: #DM-001). The electropherograms were checked then the automatic peak detection was manually corrected if it was required.
HeLa cells (2.5×10^6) were treated for 4-24 hours with the compounds solubilized in DMSO. After 4 hours, indicated points were washed and cells were left in full growth media. Compounds were added at 10 μM each. […]

CCNC(=O)C[C@@H]1N=C(c2ccc(Cl)cc2)c2cc(-c3cccc(B(O)O)c3)ccc2-n2c(C)nnc21 [BRD-E72, (3-((4S)-6-(4-chlorophenyl)-4-(2-(ethylamino)-2-oxoethyl)-1-methyl-4H-benzo[f][1,2,4]triazolo[4,3-a][1,4]diazepin-8-yl)phenyl)boronic acid]
Loss of cell viability, co-dosed with CRBN ligand 8047 (Namalwa cells): increase in the loss of viability compared to monomer treatment alone; also recorded: marked loss in cell viability | Caspase 3/7 activation, co-dosed with CRBN ligand 8047 (caspase 3/7): demonstrates activation of caspase 3/7; also recorded: marked caspase activation | Degradation of BRD4 in combination with CRBN ligand [drawing 371] (BRD4 [1]): ✓ (A black check mark indicates efficacy of 30% to 70% or higher protein degradation) | BRD4 degradation, BRD ligand with pomalidomide (no 8047) (BRD4 [2]; 10 μM): failed to induce BRD4 degradation | BRD4 degradation, BRD ligand alone (BRD4 [2]; BRD monomer alone, Western blot): no change in expression | BRD4 degradation, co-dosing with CRBN ligand 8047 (WES) (BRD4 [3]): marked BRD4 degradation after 4h with sustained degradation for up to 8h after drugs are washed out

Reference: US20230277553A1, “THERAPEUTIC COMPOSITION OF CURE-PRO COMPOUNDS FOR TARGETED DEGRADATION OF BET DOMAIN PROTEINS, AND METHODS OF MAKING AND USAGE” (CORNELL UNIVERSITY, priority 2020, published 2023)
